# Key:
# [1] = system: BRDTBD1 expressed in M. smegmatis cells; experiment: In vivo degradation assay in live mycobacteria, capillary western (Wes); assay type: cell-based, M. smegmatis mc^2-155; settings: 100 µM, 10 µM or 1 µM BacPROTAC-3, 100 µM sCym-1 or 100 µM JQ1; 2 hours incubation; Figure 3
# Procedure: After validating the activity of the compound Cym_bacPROTAC_3 in vitro, the compound was investigated in an in vivo degradation assay in a cellular environment. For the in vivo degradation assay Msm cells stably expressing BRDTBD1 were used. The culture was treated with the compound Cym_bacPROTAC_3 or alternatively, the individual building blocks sCym-1 and JQ1. After two hours incubation, BRDTBD1 levels were quantified using capillary western as detailed below.
# A stationary culture of M. smegmatis mc^2-155 carrying a plasmid BRDTBD1 expression was diluted 1:200 in 50 mL 7H9 medium supplemented with 50 µg/mL hygromycin. The culture was grown at 37 °C with vigorous shaking to an OD600 of ∼1. Expression of BRDTBD1 was then induced by addition of 200 µL 50% acetamide in H2O. […]
# The amounts of BRDTBD1 in the lysates were quantified using Wes (ProteinSimple), a capillary electrophoresis-based western blot technology. Bacterial lysates were diluted 2-fold and analysed using the 12-230 kDa Wes Separation Module (Protein simple, SM-W004) following the manufacturer's instructions. […] BRDTBD1 was detected using the Anti-Rabbit Detection Module for Wes (ProteinSimple, DM-001), which includes a peroxidase-conjugated secondary antibody and a chemiluminescent substrate. Results were analysed using the Compass for SW software (ProteinSimple). […]
# [2] = system: mycobacterial proteome (2912 proteins) incl. BRDTBD1; experiment: Selectivity of protein degradation, TMT mass spectrometric analysis of Msm lysates; assay type: cell-based, M. smegmatis; settings: TMT MS, triplicate analysis, Figure 4
# Procedure: To address this point, a tandem mass tag (TMT) mass spectrometric (MS) analysis of Msm lysates was performed.
# Thus, the TMT MS analysis provides compelling evidence that the compound Cym_bacPROTAC_3 is capable of inducing degradation of the BRDTBD1 substrate in a highly specific and efficient manner.
smiles,measurement,setting,value
Cc1sc2c(c1C)C(c1ccc(Cl)cc1)=N[C@@H](CC(=O)OC(C)(C)C)c1nnc(C)n1-2 [JQ1],BRDTBD1 levels after treatment,[1],did not affect BRDTBD1 levels
same,change in protein abundance versus vehicle (DMSO),[2],did not affect BRDTBD1 levels and did also not cause global effects
